# Earlier results, collected in patent US20230114993A1 (priority 2019, published 2023).
# System: CADASIL
# Conditions: compared to placebo, CADASIL patients
structure (smiles),measurement,value
COc1cc2c(cc1OC)C(=O)C(CC1CCN(Cc3ccccc3)CC1)C2 (stereo not shown) [donepezil],Treatment effect in cognitive and executive function assessments,failed to show any treatment effect
